Data as given in patent publication US20250270206A1, “COMPOSITIONS AND METHODS FOR INHIBITION OF RAS” (TheRas, Inc., priority 2022, published 2025).

What was measured:
pERK in NCI-H358 cells = test: Cell-based pERK HTRF assay; conditions: Homo sapiens, 0.5 h, 30 min incubation
Outline: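 KRAS G12C NCI-H358 cells in RPMI/10% FBS treated 30 min with compound, 9-point 3-fold series from 75 μM final top, 0.25% DMSO. Lysates read for phospho-ERK by HTRF (d2/Eu cryptate antibodies, 615 nm emission) after 4–24 h room-temperature incubation.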

[1] = biological target: T1, Avi-KRAS G12C (1-169) GppNHp/RAF1 RBD-3×FLAG (52-151) (Homo sapiens, UniProt P01116, G12C); test: KRAS G12C-effector (RAF1 RBD) protein:protein interaction HTRF disruption assay; type: biochemical; conditions: PPI HTRF
T1 construct: Avi-KRAS G12C (1-169) GppNHp
Outline: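 TR-FRET disruption read-out (excitation 320 nm, emission 615 nm), expressed relative to DMSO set at 100% activity, over a 3-fold compound series of 30-0.02 μM. Tris pH 7.5 buffer with 5 mM MgCl2, 0.1% BSA and 10% DMSO. GppNHp-bound KRAS G12C (50 nM), then RAF1 RBD (75 nM), then detection reagents, each incubated 1 h at RT.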

[2] = biological target: T2, GDP-loaded KRAS4b (amino acids 1-169) G12C/C118S (Homo sapiens, UniProt P01116, C118S/G12C); test: MALDI-TOF MS covalent Cys12 modification, GDP-loaded KRAS G12C; type: binding; conditions: 15 minutes reaction time, 1 μM protein, 1:2.5 protein to compound ratio
T2 construct: KRAS4b (amino acids 1-169) G12C/C118S protein; made in house
Outline: (§1)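 1 μM KRAS4b(1-169) G12C/C118S loaded with GTP, GppNHp or GDP in 20 mM HEPES, 150 mM NaCl, 1 mM MgCl2, pH 7.3, treated at a 1:2.5 protein:compound ratio in the dark at room temperature. Linear-mode MALDI-TOF; percent modification = adduct peak height over total protein peak heights, at 15 min.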

[3] = biological target: T3, GppNHp-loaded KRAS4b (amino acids 1-169) G12C/C118S (Homo sapiens, UniProt P01116, C118S/G12C); test: MALDI-TOF MS covalent Cys12 modification, GppNHp-loaded KRAS G12C; type: binding; conditions: 15 minutes reaction time, 1 μM protein, 1:2.5 protein to compound ratio
T3 construct: KRAS4b (amino acids 1-169) G12C/C118S protein; made in house
Outline: as §1

[4] = biological target: T4, GTP-loaded KRAS4b (amino acids 1-169) G12C/C118S (Homo sapiens, UniProt P01116, C118S/G12C); test: MALDI-TOF MS covalent Cys12 modification, GTP-loaded KRAS G12C; type: binding; conditions: 15 minutes reaction time, 1 μM protein, 1:2.5 protein to compound ratio
T4 construct: KRAS4b (amino acids 1-169) G12C/C118S protein; made in house
Outline: as §1

SMILES | IC50 (pERK in NCI-H358 cells) | IC50 [1] | GDP-KRAS G12C percent of modification [2] | GppNHp-KRAS G12C percent of modification [3] | GTP-KRAS G12C percent of modification [4]
C=CC(=O)N1CC[C@@H](N(C)c2nc(OC[C@@]34CCCN3C[C@H](F)C4)nc3c(F)c(-c4ccc(F)c5sc(N)c(C#N)c45)ncc23)[C@H]1C [Compound 17, 4-(4-(((2R,3R)-1-acryloyl-2-methylpyrrolidin-3-yl)(methyl)amino)-8-fluoro-2-(((2R,7aS)-2-fluorotetrahydro-1H-pyrrolizin-7a(5H)-yl)methoxy)pyrido[4,3-d]pyrimidin-7-yl)-2-amino-7-fluorobenzo[b]thiophene-3-carbonitrile] | ≤ 100 nM | ≤ 500 nM | A (percent of modification ≥70%) | A (percent of modification ≥70%) | A (percent of modification ≥70%)
C=CC(=O)N1C[C@@H](F)[C@@H](N(CC)c2nc(OC[C@@]34CCCN3C[C@H](F)C4)nc3c(F)c(-c4ccc(F)c5sc(N)c(C#N)c45)ncc23)C1 [Compound 18] | ≤ 100 nM | ≤ 500 nM | A (percent of modification ≥70%) | A (percent of modification ≥70%) | A (percent of modification ≥70%)
C=CC(=O)N1CCC(N(CC)c2nc(OC[C@@]34CCCN3C[C@H](F)C4)nc3c(F)c(-c4ccc(F)c5sc(N)c(C#N)c45)ncc23)[C@H]1C (stereo partly shown) [Compound 19] | ≤ 100 nM | ≤ 500 nM | A (percent of modification ≥70%) | A (percent of modification ≥70%) | A (percent of modification ≥70%)
C=CC(=O)N1CCC(N(C)c2nc(OC[C@@H]3C[C@@H](OC)CN3C)nc3c(F)c(-c4ccc(F)c5sc(N)c(C#N)c45)ncc23)[C@H]1COC (stereo partly shown) [Compound 20] | 100 to 1000 nM | ≤ 500 nM | A (percent of modification ≥70%) | A (percent of modification ≥70%) | A (percent of modification ≥70%)
C=CC(=O)N1CCC(N(C)c2nc(OC[C@@H]3C[C@@H](F)CN3C)nc3c(F)c(-c4ccc(F)c5sc(N)c(C#N)c45)ncc23)[C@H]1C (stereo partly shown) [Compound 23] | 100 to 1000 nM | ≤ 500 nM | A (percent of modification ≥70%) | A (percent of modification ≥70%) | A (percent of modification ≥70%)
C=CC(=O)N1CCC(N(CC)c2nc(OC[C@@]34CCCN3C[C@H](F)C4)nc3c(F)c(-c4ccc(F)c5sc(N)c(C#N)c45)ncc23)[C@H]1COC (stereo partly shown) [Compound 25] | 100 to 1000 nM | ≤ 500 nM | A (percent of modification ≥70%) | A (percent of modification ≥70%) | A (percent of modification ≥70%)
C=CC(=O)N1CCC(N(C)c2nc(OC[C@@H]3C[C@@H](F)CN3C)nc3c(F)c(-c4ccc(F)c5sc(N)c(C#N)c45)ncc23)[C@H]1COC (stereo partly shown) [Compound 27] | 100 to 1000 nM | ≤ 500 nM | A (percent of modification ≥70%) | A (percent of modification ≥70%) | A (percent of modification ≥70%)
C=CC(=O)N1CCC(N(C)c2nc(OC[C@@H]3C[C@@H](OC)CN3C)nc3c(F)c(-c4ccc(F)c5sc(N)c(C#N)c45)ncc23)[C@H]1C (stereo partly shown) [Compound 28] | 100 to 1000 nM | ≤ 500 nM | A (percent of modification ≥70%) | A (percent of modification ≥70%) | A (percent of modification ≥70%)
C=CC(=O)N1CCC(N(CC)c2nc(OC[C@@]34CCCN3C[C@H](F)C4)nc3c(Cl)c(-c4ccc(F)c5sc(N)c(C#N)c45)ncc23)[C@H]1COC (stereo partly shown) [Compound 30] | 100 to 1000 nM | ≤ 500 nM | A (percent of modification ≥70%) | A (percent of modification ≥70%) | A (percent of modification ≥70%)
C=CC(=O)N1CCC(N(CC)c2nc(OC[C@@]34CCCN3C[C@H](F)C4)nc3c(Cl)c(-c4ccc(F)c5sc(N)c(C#N)c45)ncc23)[C@H]1C (stereo partly shown) [Compound 37] | ≤ 100 nM | ≤ 500 nM | A (percent of modification ≥70%) | A (percent of modification ≥70%) | A (percent of modification ≥70%)
C=CC(=O)N1CCC(N(C)c2nc(OC[C@@]34CCCN3C[C@H](F)C4)nc3c(Cl)c(-c4ccc(F)c5sc(N)c(C#N)c45)ncc23)[C@H]1CC (stereo partly shown) [Compound 38] | ≤ 100 nM | ≤ 500 nM | A (percent of modification ≥70%) | A (percent of modification ≥70%) | A (percent of modification ≥70%)
C=CC(=O)N1CCC(N(C)c2nc(OC[C@@]34CCCN3C[C@H](F)C4)nc3c(F)c(-c4ccc(F)c5sc(N)c(C#N)c45)ncc23)[C@H]1CC (stereo partly shown) [Compound 39] | 100 to 1000 nM | ≤ 500 nM | A (percent of modification ≥70%) | A (percent of modification ≥70%) | A (percent of modification ≥70%)
C=CC(=O)N1CCC(N(CC)c2nc(OC[C@@]34CCCN3C[C@H](F)C4)nc3c(F)c(-c4ccc(F)c5sc(N)c(C#N)c45)ncc23)[C@H]1CC (stereo partly shown) [Compound 40] | 100 to 1000 nM | ≤ 500 nM | A (percent of modification ≥70%) | A (percent of modification ≥70%) | A (percent of modification ≥70%)
C=CC(=O)N1CCC(N(CC)c2nc(OC[C@@]34CCCN3C[C@H](F)C4)nc3c(Cl)c(-c4ccc(F)c5sc(N)c(C#N)c45)ncc23)[C@H]1CC (stereo partly shown) [Compound 41] | 100 to 1000 nM | ≤ 500 nM | A (percent of modification ≥70%) | A (percent of modification ≥70%) | A (percent of modification ≥70%)
C=CC(=O)N1CC[C@@H](N(C)c2nc(OC[C@@]34CCCN3C[C@H](F)C4)nc3c(F)c(-c4ccc(F)c5sc(N)c(C#N)c45)ncc23)[C@H]1CC [Compound 42] | 100 to 1000 nM | ≤ 500 nM | A (percent of modification ≥70%) | A (percent of modification ≥70%) | A (percent of modification ≥70%)
C=CC(=O)N1CC[C@@H](N(CC)c2nc(OC[C@@]34CCCN3C[C@H](F)C4)nc3c(Cl)c(-c4ccc(F)c5sc(N)c(C#N)c45)ncc23)[C@H]1CC [Compound 43] | 100 to 1000 nM | ≤ 500 nM | A (percent of modification ≥70%) | A (percent of modification ≥70%) | A (percent of modification ≥70%)
C=CC(=O)N1CC[C@@H](N(C)c2nc(OC[C@@]34CCCN3C[C@H](F)C4)nc3c(F)c(-c4ccc(F)c5sc(N)c(C#N)c45)ncc23)[C@@H]1CC [Compound 44] | 100 to 1000 nM | 500 to 5000 nM | A (percent of modification ≥70%) | C (10%≤percent of modification <50%) | D (percent of modification <10%)
